Laboratory results taken from PMC9767416, “Discovery of small molecule mechanistic target of rapamycin inhibitors as anti-aging and anti-cancer therapeutics” (Frontiers in Aging Neuroscience, 2022).
Read-outs that look alike come from different tables or passages of the source.

Legend:
[1] = Shake-flask partition coefficient logP and distribution coefficient logD (pH 7.4); format: physicochemical; settings: for logD: n-octanol/sodium phosphate buffer pH 7.4; for logP: n-octanol/water
Protocol: Before the initiation of the intended experiments, all solvents were mutually saturated at 21°C. […] For saturation, large stock bottles containing n-octanol and 12% of water/buffer or water/buffer and 12% of n-octanol were shaken for 30 mins on a mechanical shaker and subsequently left to stand on the bench overnight until the phases separated. Approximately 0.50 mg of tested substance was added to the test vessels alongside with 1:1 volume ratio of saturated solvents (250 μL). The test vessels were shaken on the mechanical shaker (Multi Reax, Heidolph Instruments, Schwabach, Germany) for 30 min at the highest speed and then centrifuged for phase separation (16.873 × g for 5 min; Eppendorf 5418 Microcentrifuge, Prague, Czech Republic). Both organic and aqueous phases were sampled for LC-MS analysis. UHPLC-DAD-MS (UHPLC Infinity II 1290, detection by DAD and QqQ 6470; Agilent Technologies, CA, USA; separation on Arion C18 polar column 100 × 2.1 mm, 2.1 μm; Chromservis, Czech Republic) was used for determination of the exact concentration of tested substances. The total quantity of substance (in both phases) was used for logP/logD values calculation.

[2] = Solubility by nephelometry (water, buffer pH 7.4); format: physicochemical; settings: for logSpH 7.4: buffer pH 7.4; for logSH2O: water
Protocol: Compounds’ solubility was measured by the NEPHELOstar microplate instrument (BMG Labtech, Offenburg, Germany). Stock solutions were prepared by dissolving the tested compounds in ultrapure water or sodium phosphate buffer (pH 7.4) to obtain a concentration of 160 and 1,000 μg/mL. Each stock solution was sonicated at full power by Hielscher UP100H needle ultrasonic processor (Teltow, Germany) before loading into NEPHELOstar instrument injector A. Ultrapure water or sodium phosphate buffer was loaded into injector B. Compound was diluted in 48 wells in 0–160 or 0–1,000 μg/mL range and subsequently shook for 30 s. Each well was scanned with 80% laser power in matrix 3 × 3, beam width 2 mm, and obtained data were evaluated in GraphPad Prism 7.03 (GraphPad Software, San Diego, CA, USA) using segmental linear regression.

[3] = tested on: mTORC1 substrate p70 S6 kinase (Thr389 phosphorylation); experiment: Immunoblot of phospho-p70 S6K (Thr389), mTORC1 activity in cells; format: cell-based, human; settings: for effect on Thr389 S6K phosphorylation / effect on p70 S6K phosphorylation: 100 μM
C57BL/6 (B6) male mice [4] = experiment: Blood counts in the tolerability study; format: in vivo
Protocol: Compounds were dissolved in 20 μL DMSO and completed into 200 μL with corn oil.
During the experiments, mice behavior and possible apparent signs of toxicity were monitored daily. The body weights were determined on days 0, 4, and 8. On day 8, blood (25 μL) was withdrawn using a capillary pipette containing anticoagulant (heparin) from the retroorbital sinus into EDTA-containing tubes. Basic hematological parameters were measured using the Mindray BC-5300 Vet. Mice were then killed, autopsied, and abdominal organs (spleen, liver, and kidney) were removed for visual examination and imaging by a digital camera. Single-cell suspensions from the spleens were prepared by homogenization through a cell strainer (70 μm; BD Biosciences, San Jose, CA, USA). Erythrocytes were osmotically lysed using ammonium chloride-potassium lysis buffer, and the cell suspensions were washed three times in the RPMI-1640 medium and used for further analysis by flow cytometry for selected cell populations.

C57BL/6 (B6) male mice [5] = experiment: Histopathological analysis of spleen, kidney and liver; format: in vivo
Protocol: Spleen, kidney, and liver tissue samples from the control and treated animals were fixed in 4% formaldehyde and embedded into paraffin. The analysis and evaluation were performed at the Czech Centre for Phenogenomics, Institute of Molecular Genetics of the CAS, Vestec, using Leica ASP6025 automatic vacuum tissue processor for tissue processing, Leica EG1150 H + C embedding station for embedding, and Leica RM2255 rotary microtome for sectioning (2 μm sections). Standard haematoxylin and eosin (HE) descriptive histopathological staining was done using Leica ST5020 + CV5030 stainer and coverslipped.

[6] = sodium phosphate buffer pH 7.4, nephelometry
[7] = mice, 5 mg/kg p.o. days 0, 3, 5, blood day 8, AVG
[8] = mice, 25 mg/kg p.o. days 0, 3, 5, blood day 8, AVG
[9] = mice, 50 mg/kg p.o. days 0, 3, 5, blood day 8, AVG
[10] = mice, all three doses (5, 25, 50 mg/kg p.o.)
[11] = mice, 5 mg/kg p.o. days 0, 3, 5, blood day 8, AVG, in 10^9/L (unit assumed)
[12] = mice, 5 mg/kg p.o. days 0, 3, 5, blood day 8, AVG, in fL (unit assumed)
[13] = mice, 5 mg/kg p.o. days 0, 3, 5, blood day 8, AVG, in g/L (unit assumed)
[14] = mice, 25 mg/kg p.o. days 0, 3, 5, blood day 8, AVG, in 10^9/L (unit assumed)
[15] = mice, 25 mg/kg p.o. days 0, 3, 5, blood day 8, AVG, in fL (unit assumed)
[16] = mice, 25 mg/kg p.o. days 0, 3, 5, blood day 8, AVG, in g/L (unit assumed)
[17] = mice, 50 mg/kg p.o. days 0, 3, 5, blood day 8, AVG, in 10^9/L (unit assumed)
[18] = mice, 50 mg/kg p.o. days 0, 3, 5, blood day 8, AVG, in fL (unit assumed)
[19] = mice, 50 mg/kg p.o. days 0, 3, 5, blood day 8, AVG, in g/L (unit assumed)

## Nc1ccc(C(=O)Nc2cccc(-c3c[nH]c4ncccc34)c2)cc1O [Compound 3, N-(3-(1H-pyrrolo[2,3-b]pyridin-3-yl)phenyl)-4-amino-3-hydroxybenzamide]
[1]; n-octanol/sodium phosphate buffer, pH 7.4, shake-flask, read-out: logD
  logD: 2.15 ± 0.02
[1]; shake-flask, read-out: logP
  logP: 2.08 ± 0.07
[2]; aqueous buffer, sodium phosphate buffer pH 7.4, nephelometry, read-out: Sol. (buffer 7.4)
  solubility kinetic at 30 s: < 6 µg/mL
[2]
  logSpH 7.4: <−4.76
  logSH2O: <−4.76
[2]; [6]
  Sol. (buffer 7.4): lower than 6 μg/mL
[2]; ultrapure water, nephelometry
  Sol. (H2O): lower than 6 μg/mL
[2]; ultrapure water, nephelometry, read-out: Sol. (H2O)
  solubility kinetic at 30 s: < 6 µg/mL
[3]; BJ cells, 1 and 5 h
  effect on Thr389 S6K phosphorylation: inhibitory effect
[3]; DU-145, 1 and 5 h
  effect on Thr389 S6K phosphorylation: no effect
[3]; H1299, 1 and 5 h
  effect on Thr389 S6K phosphorylation: Marked but transient inhibition
[3]; MDA-MB-231, 1 and 5 h
  effect on Thr389 S6K phosphorylation: Marked but transient inhibition
[3]; RPE-1, 1 and 5 h
  effect on Thr389 S6K phosphorylation: no effect
[3]; T98, 1 and 5 h
  effect on Thr389 S6K phosphorylation: Marked but transient inhibition
[3]; U87, after 1 h, reasonable level also after 5 h
  effect on Thr389 S6K phosphorylation: most potent inhibitory effect
[3]; docetaxel-induced senescent BJ, 1 and 5 h
  effect on p70 S6K phosphorylation: robust effect
[3]; ionizing radiation-induced senescent RPE-1, 1 and 5 h
  effect on p70 S6K phosphorylation: less pronounced effect
[3]; proliferating BJ cells, 0–100 μM, after 5 h-long exposure
  concentration from which inhibition of S6K phosphorylation is apparent: 6.25 µM
[3]; temozolomide-induced senescent U87, 1 and 5 h
  effect on p70 S6K phosphorylation: less pronounced effect
C57BL/6 (B6) male mice [4]; [7]
  MPV: 5.67
C57BL/6 (B6) male mice [4]; [8]
  MPV: 5.37
C57BL/6 (B6) male mice [4]; [9]
  MPV: 5.20
C57BL/6 (B6) male mice [4]; mouse, in vivo, po, 5 mg/kg
  Eos: 0.88
  HGB: 131.00
  HOT: 0.44
  MCH: 15.90
  MCHC: 296.33
  MCV: 53.70
  Mon: 0.39 10^9/L
  Neu: 1.65
  PCT: 3.88
  PDW: 15.20
  PLT: 677.33
  RBC: 8.28 10^12/L
  RDW-CV: 0.14
  RDW-SD: 31.27
  WBC: 12.56
  lvm: 9.60
C57BL/6 (B6) male mice [4]; mouse, in vivo, po, 25 mg/kg
  Eos: 0.74
  HGB: 136.00
  HOT: 0.46
  MCH: 15.53
  MCHC: 294.00
  MCV: 52.77
  Mon: 0.52 10^9/L
  Neu: 1.47
  PCT: 1.77
  PDW: 14.93
  PLT: 330.00
  RBC: 8.76 10^12/L
  RDW-CV: 0.15
  RDW-SD: 32.23
  WBC: 11.49
  lvm: 8.71
C57BL/6 (B6) male mice [4]; mouse, in vivo, po, 50 mg/kg
  Eos: 0.43
  HGB: 150.67
  HOT: 0.52
  MCH: 15.10
  MCHC: 289.33
  MCV: 52.07
  Mon: 0.72 10^9/L
  Neu: 0.86
  PCT: 3.92
  PDW: 14.70
  PLT: 751.67
  RBC: 9.99 10^12/L
  RDW-CV: 0.13
  RDW-SD: 29.03
  WBC: 8.25
  lvm: 6.23
C57BL/6 (B6) male mice [5]; mice, 25 mg/kg p.o., HE, 100×
  histopathology, spleen: mild extramedullar hematopoiesis
C57BL/6 (B6) male mice [5]; mice, 25 mg/kg p.o., HE, 200×
  histopathology, kidneys: narrowing of Bowman’s space (arrow), focal tubular atrophy
C57BL/6 (B6) male mice [5]; mice, 50 mg/kg p.o., HE, 200×
  histopathology, kidneys: multifocal mild tubular damage
C57BL/6 (B6) male mice [5]; mice, 50 mg/kg p.o., HE, 400×
  histopathology, liver: rare incipient centrilobular necrosis
C57BL/6 (B6) male mice [5]; mice, 5, 25, 50 mg/kg p.o., dose-dependent
  histopathology, liver: minimal evidence of damage
C57BL/6 (B6) male mice [5]; mice, 5, 25, 50 mg/kg p.o., proportional to dose
  histopathology, kidneys: most pronounced pathological changes
C57BL/6 (B6) male mice [5]; [10]
  histopathology, spleen: varying degrees of extramedullary haematopoiesis

## CC(C)n1nc(-c2cc3cc(O)ccc3[nH]2)c2c(N)ncnc21 [Torkinib, torkinib]
[1]; shake-flask
  logD: 2.75 ± 0.06
  logP: 2.65 ± 0.02
[2]
  logSpH 7.4: <−4.71
  logSH2O: <−4.71
[2]; listed as torkinib
  logSpH 7.4: < −4.60
  logSH2O: < −4.60
[2]; [6]
  Sol. (buffer 7.4): <6 µg/mL
[2]; sodium phosphate buffer pH 7.4, nephelometry, listed as torkinib
  Sol. (buffer 7.4): lower than 6 μg/mL
[2]; ultrapure water, nephelometry
  Sol. (H2O): <6 µg/mL
[2]; ultrapure water, nephelometry, listed as torkinib
  Sol. (H2O): lower than 6 μg/mL
[3]; BJ cells, 1 and 5 h
  effect on Thr389 S6K phosphorylation: inhibitory effect
C57BL/6 (B6) male mice [4]; [7]
  Eos: 0.04
  HOT: 0.49
  MPV: 5.33
  Neu: 0.99
  PCT: 3.59
  PDW: 14.57
  RBC: 9.25 10^12/L
  RDW-CV: 0.14
  lvm: 8.67
C57BL/6 (B6) male mice [4]; [11]
  PLT: 690.67
  WBC: 10.43
C57BL/6 (B6) male mice [4]; [12]
  MCV: 53.73
  RDW-SD: 31.77
C57BL/6 (B6) male mice [4]; [13]
  HGB: 146.00
  MCHC: 296.67
C57BL/6 (B6) male mice [4]; mice, 5 mg/kg p.o. days 0, 3, 5, blood day 8, AVG, in pg (unit assumed)
  MCH: 15.97
C57BL/6 (B6) male mice [4]; mice, 5 mg/kg p.o. days 0, 3, 5, blood day 8, AVG, unit assumed
  Mon: 0.73 10^9/L
C57BL/6 (B6) male mice [4]; [8]
  Eos: 0.08
  HOT: 0.52
  MPV: 5.30
  Neu: 0.79
  PCT: 3.79
  PDW: 14.73
  RBC: 9.96 10^12/L
  RDW-CV: 0.14
  lvm: 6.68
C57BL/6 (B6) male mice [4]; [14]
  PLT: 712.00
  WBC: 8.14
C57BL/6 (B6) male mice [4]; [15]
  MCV: 51.90
  RDW-SD: 29.23
C57BL/6 (B6) male mice [4]; [16]
  HGB: 154.00
  MCHC: 298.00
C57BL/6 (B6) male mice [4]; mice, 25 mg/kg p.o. days 0, 3, 5, blood day 8, AVG, in pg (unit assumed)
  MCH: 15.50
C57BL/6 (B6) male mice [4]; mice, 25 mg/kg p.o. days 0, 3, 5, blood day 8, AVG, unit assumed
  Mon: 0.59 10^9/L
C57BL/6 (B6) male mice [4]; [9]
  Eos: 0.04
  HOT: 0.53
  MPV: 5.43
  Neu: 1.25
  PCT: 4.73
  PDW: 14.67
  RBC: 9.95 10^12/L
  RDW-CV: 0.14
  lvm: 6.32
C57BL/6 (B6) male mice [4]; [17]
  PLT: 873.67
  WBC: 8.70
C57BL/6 (B6) male mice [4]; [18]
  MCV: 53.27
  RDW-SD: 31.07
C57BL/6 (B6) male mice [4]; [19]
  HGB: 153.67
  MCHC: 290.33
C57BL/6 (B6) male mice [4]; mice, 50 mg/kg p.o. days 0, 3, 5, blood day 8, AVG, in pg (unit assumed)
  MCH: 15.50
C57BL/6 (B6) male mice [4]; mice, 50 mg/kg p.o. days 0, 3, 5, blood day 8, AVG, unit assumed
  Mon: 1.09 10^9/L
C57BL/6 (B6) male mice [4]; mice, p.o. 5, 25 and 50 mg/kg, blood day 8
  blood count analysis, overall finding: no abnormal changes
C57BL/6 (B6) male mice [5]; [10]
  histopathology, spleen: minimal to moderate signs of extramedullary haematopoiesis
